Assay results as given in PubChem BioAssay (NCI).
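Method: 48-hour compound exposure of cells in 96-well plates, five concentrations, linear interpolation of endpoints. At the TGI there is no net growth.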

Tests used:
Assay in all cases: NCI-60 cell line screen, 48 h
[1] = system: MALME-3M melanoma
[2] = system: SK-MEL-5 melanoma
[3] = system: MDA-N
[4] = system: UACC-257 melanoma
[5] = system: DU-145 prostate
[6] = system: NCI-H522 lung
[7] = system: SF-539 CNS
[8] = system: MDA-MB-231 breast
[9] = system: K-562 leukemia
[10] = system: HT29 colon
[11] = system: CAKI-1 renal
[12] = system: HCC-2998 colon
[13] = system: T-47D breast
[14] = system: U251 CNS
[15] = system: SW-620 colon
[16] = system: UO-31 renal
[17] = system: SK-OV-3 ovarian
[18] = system: KM12 colon
[19] = system: SNB-19 CNS
[20] = system: A549 NSCLC
[21] = system: MOLT-4 leukemia
[22] = system: COLO 205 colon
[23] = system: OVCAR-8 ovarian
[24] = system: HCT-116 colon
[25] = system: SK-MEL-2 melanoma
[26] = system: LOX IMVI melanoma
[27] = system: ACHN renal
[28] = system: CCRF-CEM leukemia
[29] = system: HL-60(TB) leukemia
[30] = system: UACC-62 melanoma
[31] = system: RXF 393 renal
[32] = system: OVCAR-4 ovarian
[33] = system: SK-MEL-28 melanoma
[34] = system: IGROV1 ovarian
[35] = system: NCI/ADR-RES ovarian
[36] = system: NCI-H460 lung
[37] = system: MCF7 breast
[38] = system: BT-549 breast
[39] = system: OVCAR-5 ovarian
[40] = system: HS 578T breast
[41] = system: NCI-H23 lung
[42] = system: SF-295 CNS
[43] = system: TK-10 renal
[44] = system: SF-268 CNS
[45] = system: SR leukemia
[46] = system: HOP-62 NSCLC
[47] = system: SN12C renal
[48] = system: 786-0 renal
[49] = system: M14 melanoma
[50] = system: HCT-15 colon
[51] = system: PC-3 prostate
[52] = system: SNB-75 CNS
[53] = system: NCI-H226 lung
[54] = system: EKVX NSCLC
[55] = system: MDA-MB-435
[56] = system: RPMI-8226 leukemia
[57] = system: OVCAR-3 ovarian
[58] = system: A498 renal
[59] = system: HOP-92 NSCLC

**Q.** Which results are given for `COc1ccc(OC)c(C(=O)c2cccc(C(=O)c3cc(OC)ccc3OC)n2)c1`?
**A.** TGI [1]: > 100 µM; TGI [2]: 50.5 µM; TGI [3]: 62.6 µM; TGI [4]: > 100 µM; TGI [5]: > 100 µM; TGI [6]: > 100 µM; TGI [7]: > 100 µM; TGI [8]: > 100 µM; TGI [9]: > 100 µM; TGI [10]: > 100 µM; TGI [11]: > 100 µM; TGI [12]: > 100 µM; TGI [13]: > 100 µM; TGI [14]: > 100 µM; TGI [15]: > 100 µM; TGI [16]: 85.9 µM; TGI [17]: > 100 µM; TGI [18]: > 100 µM; TGI [19]: > 100 µM; TGI [20]: > 100 µM; TGI [21]: > 100 µM; TGI [22]: > 100 µM; TGI [23]: > 100 µM; TGI [24]: > 100 µM; TGI [25]: 70.9 µM; TGI [26]: > 100 µM; TGI [27]: > 100 µM; TGI [28]: > 100 µM; TGI [29]: 71.9 µM; TGI [30]: > 100 µM; TGI [31]: 43.4 µM; TGI [32]: > 100 µM; TGI [33]: > 100 µM; TGI [34]: > 100 µM; TGI [35]: > 100 µM; TGI [36]: > 100 µM; TGI [37]: 67.5 µM; TGI [38]: 79.2 µM; TGI [39]: > 100 µM; TGI [40]: 84.5 µM; TGI [41]: 74 µM; TGI [42]: 74.5 µM; TGI [43]: > 100 µM; TGI [44]: > 100 µM; TGI [45]: > 100 µM; TGI [46]: > 100 µM; TGI [47]: > 100 µM; TGI [48]: > 100 µM; TGI [49]: > 100 µM; TGI [50]: > 100 µM; TGI [51]: > 100 µM; TGI [52]: 59.4 µM; TGI [53]: 74.9 µM; TGI [54]: > 100 µM

**Q.** Which TGI [1] does the source give for `O=C(O)c1ccc(Cc2ccccc2C(=O)O)cc1` here?
**A.** The TGI was over 100 µM.

**Q.** And the TGI [2]?
**A.** Its TGI is over 100 µM.

**Q.** What about the TGI [3] of the same compound?
**A.** Its TGI is over 100 µM.

**Q.** What about the TGI [4] of the same compound?
**A.** Its TGI is over 100 µM.

**Q.** And the TGI [55]?
**A.** The TGI was over 100 µM.

**Q.** And the TGI [6]?
**A.** Its TGI is over 100 µM.

**Q.** And the TGI [7]?
**A.** Its TGI is over 100 µM.

**Q.** And the TGI [8]?
**A.** The TGI was over 100 µM.

**Q.** What about the TGI [9] of the same compound?
**A.** The TGI was over 100 µM.

**Q.** What about the TGI [10] of the same compound?
**A.** Its TGI is over 100 µM.

**Q.** And the TGI [11]?
**A.** Its TGI is over 100 µM.

**Q.** What about the TGI [12] of the same compound?
**A.** Its TGI is over 100 µM.

**Q.** And the TGI [56]?
**A.** Its TGI is over 100 µM.

**Q.** And the TGI [13]?
**A.** The TGI was over 100 µM.

**Q.** What about the TGI [14] of the same compound?
**A.** Its TGI is over 100 µM.

**Q.** What about the TGI [15] of the same compound?
**A.** Its TGI is over 100 µM.

**Q.** What about the TGI [16] of the same compound?
**A.** Its TGI is over 100 µM.

**Q.** What about the TGI [17] of the same compound?
**A.** Its TGI is over 100 µM.

**Q.** And the TGI [18]?
**A.** Its TGI is over 100 µM.

**Q.** What about the TGI [19] of the same compound?
**A.** The TGI was over 100 µM.

**Q.** And the TGI [20]?
**A.** Its TGI is over 100 µM.

**Q.** And the TGI [22]?
**A.** Its TGI is over 100 µM.

**Q.** What about the TGI [23] of the same compound?
**A.** Its TGI is over 100 µM.

**Q.** What about the TGI [24] of the same compound?
**A.** Its TGI is over 100 µM.

**Q.** What about the TGI [25] of the same compound?
**A.** Its TGI is over 100 µM.

**Q.** And the TGI [26]?
**A.** The TGI was over 100 µM.

**Q.** And the TGI [27]?
**A.** Its TGI is over 100 µM.

**Q.** What about the TGI [28] of the same compound?
**A.** The TGI was over 100 µM.

**Q.** What about the TGI [29] of the same compound?
**A.** The TGI was over 100 µM.

**Q.** What about the TGI [30] of the same compound?
**A.** The TGI was over 100 µM.

**Q.** What about the TGI [57] of the same compound?
**A.** The TGI was over 100 µM.

**Q.** And the TGI [31]?
**A.** The TGI was over 100 µM.

**Q.** And the TGI [32]?
**A.** The TGI was over 100 µM.

**Q.** What about the TGI [33] of the same compound?
**A.** The TGI was over 100 µM.

**Q.** What about the TGI [34] of the same compound?
**A.** Its TGI is over 100 µM.

**Q.** What about the TGI [35] of the same compound?
**A.** The TGI was over 100 µM.

**Q.** And the TGI [36]?
**A.** Its TGI is over 100 µM.

**Q.** What about the TGI [37] of the same compound?
**A.** Its TGI is over 100 µM.

**Q.** And the TGI [38]?
**A.** The TGI was over 100 µM.

**Q.** And the TGI [39]?
**A.** The TGI was over 100 µM.

**Q.** What about the TGI [40] of the same compound?
**A.** Its TGI is over 100 µM.

**Q.** What about the TGI [41] of the same compound?
**A.** The TGI was over 100 µM.

**Q.** And the TGI [58]?
**A.** The TGI was over 100 µM.

**Q.** What about the TGI [42] of the same compound?
**A.** Its TGI is over 100 µM.

**Q.** What about the TGI [59] of the same compound?
**A.** Its TGI is over 100 µM.

**Q.** What about the TGI [43] of the same compound?
**A.** The TGI was over 100 µM.

**Q.** And the TGI [44]?
**A.** Its TGI is over 100 µM.

**Q.** What about the TGI [45] of the same compound?
**A.** The TGI was over 100 µM.

**Q.** And the TGI [46]?
**A.** Its TGI is over 100 µM.

**Q.** What about the TGI [47] of the same compound?
**A.** Its TGI is over 100 µM.

**Q.** What about the TGI [48] of the same compound?
**A.** The TGI was over 100 µM.

**Q.** And the TGI [49]?
**A.** The TGI was over 100 µM.

**Q.** What about the TGI [50] of the same compound?
**A.** The TGI was over 100 µM.

**Q.** What about the TGI [51] of the same compound?
**A.** The TGI was over 100 µM.

**Q.** And the TGI [52]?
**A.** Its TGI is over 100 µM.

**Q.** And the TGI [53]?
**A.** The TGI was over 100 µM.

**Q.** What about the TGI [54] of the same compound?
**A.** The TGI was over 100 µM.

**Q.** What does the source list for `[N-]=[N+]=NC1=C(C(=O)c2ccccc2)C(=O)c2cccc3cccc1c23`?
**A.** TGI [1]: > 100 µM; TGI [2]: > 100 µM; TGI [3]: > 100 µM; TGI [4]: > 100 µM; TGI [55]: > 100 µM; TGI [6]: 81.5 µM; TGI [7]: > 100 µM; TGI [8]: 87.2 µM; TGI [9]: > 100 µM; TGI [10]: > 100 µM; TGI [11]: > 100 µM; TGI [56]: > 100 µM; TGI [13]: > 100 µM; TGI [14]: > 100 µM; TGI [15]: > 100 µM; TGI [16]: > 100 µM; TGI [17]: > 100 µM; TGI [18]: > 100 µM; TGI [19]: > 100 µM; TGI [20]: > 100 µM; TGI [21]: > 100 µM; TGI [22]: > 100 µM; TGI [23]: > 100 µM; TGI [24]: > 100 µM; TGI [25]: 69.6 µM; TGI [27]: > 100 µM; TGI [28]: > 100 µM; TGI [30]: > 100 µM; TGI [57]: > 100 µM; TGI [31]: 71 µM; TGI [32]: > 100 µM; TGI [33]: > 100 µM; TGI [34]: 88.5 µM; TGI [35]: > 100 µM; TGI [37]: > 100 µM; TGI [38]: > 100 µM; TGI [39]: > 100 µM; TGI [40]: 61.4 µM; TGI [41]: > 100 µM; TGI [42]: > 100 µM; TGI [59]: > 100 µM; TGI [43]: > 100 µM; TGI [44]: 36.2 µM; TGI [45]: 77.6 µM; TGI [46]: 62 µM; TGI [47]: > 100 µM; TGI [48]: > 100 µM; TGI [49]: > 100 µM; TGI [51]: > 100 µM; TGI [52]: 33.4 µM; TGI [53]: > 100 µM; TGI [54]: 89.2 µM
